Experimental data reported in patent US8802597B2, “Herbicidal pyrimidines” (E I du Pont de Nemours and Company, priority 2003, dated 2014).

How the values were obtained:
Format in all cases: in vivo
[1] = test system: Italian ryegrass (Lolium multiflorum); experiment: Test C postemergence
In short: (§1)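 Visual injury ratings, 0 (no effect) to 100 (complete control), made 12 to 14 days after treatment by comparison with untreated controls. Greenhouse plants received test chemical in a surfactant-containing non-phytotoxic solvent, either preemergence on planted seeds or postemergence at the 1- to 4-leaf stage.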

[2] = test system: wheat (Triticum aestivum); experiment: Test C postemergence
In short: as §1

[3] = test system: wild oat (Avena fatua); experiment: Test C postemergence
In short: as §1

[4] = test system: windgrass (Apera spica-venti); experiment: Test C postemergence
In short: as §1

[5] = test system: green foxtail (Setaria viridis); experiment: Test C postemergence
In short: as §1

[6] = test system: canarygrass (Phalaris minor); experiment: Test C postemergence
In short: as §1

[7] = test system: blackgrass (Alopecurus myosuroides); experiment: Test C postemergence
In short: as §1

[8] = test system: downy brome (Bromus tectorum); experiment: Test C postemergence
In short: as §1

[9] = test system: bearded (brdd.) sprangletop (Leptochloa fusca ssp. fascicularis); experiment: Test E flooded paddy water application; details: Flood, 21 days, scale 0 to 100 (0 no effect, 100 complete control)
In short: (§2)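 Weeds sown in sterilized Tama silt loam (2.6% organic matter), greenhouse 29.5/26.7° C, 16-h photoperiod; at 2.0–2.5-leaf stage pots flooded to 3 cm and compound added to paddy water. Visual rating vs untreated controls after 21 days, 0 (no effect) to 100 (complete control).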

[10] = test system: junglerice (Echinochloa colona); experiment: Test E flooded paddy water application; details: Flood, 21 days, scale 0 to 100 (0 no effect, 100 complete control)
In short: as §2

[11] = test system: rice flatsedge (Cyperus iria); experiment: Test E flooded paddy water application; details: Flood, 21 days, scale 0 to 100 (0 no effect, 100 complete control)
In short: as §2

[12] = test system: smallflower umbrella sedge (Cyperus difformis); experiment: Test E flooded paddy water application; details: Flood, 21 days, scale 0 to 100 (0 no effect, 100 complete control)
In short: as §2

[13] = test system: late watergrass (Echinochloa oryzicola); experiment: Test E flooded paddy water application; details: Flood, 21 days, scale 0 to 100 (0 no effect, 100 complete control)
In short: as §2

[14] = test system: barnyardgrass (Echinochloa crus-galli); experiment: Test E flooded paddy water application; details: Flood, 21 days, scale 0 to 100 (0 no effect, 100 complete control)
In short: as §2

[15] = 125 g ai/ha, scale 0 to 100 (0 no effect, 100 complete control)

CCOC(=O)c1nc(-c2ccc(Cl)cc2)nc(N)c1Cl [Compound 64, ethyl 6-amino-5-chloro-2-(4-chlorophenyl)-4-pyrimidinecarboxylate]
Plant response rating (scale of 0 to 100), Ryegrass, Italian ([1]; 31 g ai/ha): 5 | Plant response rating, Ryegrass, Italian ([1]; 250 g ai/ha, scale 0 to 100): 45 | pest or weed control at 62 g/ha ([1]; Lolium multiflorum, post-emergence, 62 g ai/ha, scale 0 to 100 (0 no effect, 100 complete control), read-out: Ryegrass, Italian plant response rating): 30% | pest or weed control at 125 g/ha ([1]; Lolium multiflorum, post-emergence, 125 g ai/ha, scale 0 to 100 (0 no effect, 100 complete control), read-out: Ryegrass, Italian plant response rating): 35% | Plant response rating (scale of 0 to 100), Wheat ([2]; 31 g ai/ha): 0 | Plant response rating, Wheat ([2]; 250 g ai/ha, scale 0 to 100): 10 | plant injury at 62 g/ha ([2]; Triticum aestivum, post-emergence, 62 g ai/ha, scale 0 to 100 (0 no effect, 100 complete control), read-out: Wheat plant response rating): 0% | plant injury at 125 g/ha ([2]; Triticum aestivum, post-emergence, 125 g ai/ha, scale 0 to 100 (0 no effect, 100 complete control), read-out: Wheat plant response rating): 10% | Plant response rating (scale of 0 to 100), Oat, Wild ([3]; 31 g ai/ha): 5 | Plant response rating, Oat, Wild ([3]; 250 g ai/ha, scale 0 to 100): 10 | pest or weed control at 62 g/ha ([3]; Avena fatua, post-emergence, 62 g ai/ha, scale 0 to 100 (0 no effect, 100 complete control), read-out: Oat, Wild plant response rating): 5% | pest or weed control at 125 g/ha ([3]; Avena fatua, post-emergence, 125 g ai/ha, scale 0 to 100 (0 no effect, 100 complete control), read-out: Oat, Wild plant response rating): 10% | Plant response rating (scale of 0 to 100), Windgrass ([4]; 31 g ai/ha): 40 | Plant response rating, Windgrass ([4]; 250 g ai/ha, scale 0 to 100): 60 | pest or weed control at 62 g/ha ([4]; Apera spica-venti, post-emergence, 62 g ai/ha, scale 0 to 100 (0 no effect, 100 complete control), read-out: Windgrass plant response rating): 55% | pest or weed control at 125 g/ha ([4]; Apera spica-venti, post-emergence, 125 g ai/ha, scale 0 to 100 (0 no effect, 100 complete control), read-out: Windgrass plant response rating): 55% | Plant response rating (scale of 0 to 100), Foxtail, Green ([5]; 31 g ai/ha): 0 | Plant response rating, Foxtail, Green ([5]; 250 g ai/ha, scale 0 to 100): 45 | pest or weed control at 62 g/ha ([5]; Setaria viridis, post-emergence, 62 g ai/ha, scale 0 to 100 (0 no effect, 100 complete control), read-out: Foxtail, Green plant response rating): 30% | pest or weed control at 125 g/ha ([5]; Setaria viridis, post-emergence, 125 g ai/ha, scale 0 to 100 (0 no effect, 100 complete control), read-out: Foxtail, Green plant response rating): 40% | Plant response rating (scale of 0 to 100), Canarygrass ([6]; 31 g ai/ha): 5 | Plant response rating, Canarygrass ([6]; 250 g ai/ha, scale 0 to 100): 10 | pest or weed control at 62 g/ha ([6]; Phalaris minor, post-emergence, 62 g ai/ha, scale 0 to 100 (0 no effect, 100 complete control), read-out: Canarygrass plant response rating): 5% | pest or weed control at 125 g/ha ([6]; Phalaris minor, post-emergence, 125 g ai/ha, scale 0 to 100 (0 no effect, 100 complete control), read-out: Canarygrass plant response rating): 10% | Plant response rating (scale of 0 to 100), Blackgrass ([7]; 31 g ai/ha): 40 | Plant response rating, Blackgrass ([7]; 250 g ai/ha, scale 0 to 100): 50 | pest or weed control at 62 g/ha ([7]; Alopecurus myosuroides, post-emergence, 62 g ai/ha, scale 0 to 100 (0 no effect, 100 complete control), read-out: Blackgrass plant response rating): 45% | pest or weed control at 125 g/ha ([7]; Alopecurus myosuroides, post-emergence, 125 g ai/ha, scale 0 to 100 (0 no effect, 100 complete control), read-out: Blackgrass plant response rating): 50% | Plant response rating (scale of 0 to 100), Bromegrass, Downy ([8]; 31 g ai/ha): 10 | Plant response rating, Bromegrass, Downy ([8]; 250 g ai/ha, scale 0 to 100): 20 | pest or weed control at 62 g/ha ([8]; Bromus tectorum, post-emergence, 62 g ai/ha, scale 0 to 100 (0 no effect, 100 complete control), read-out: Bromegrass, Downy plant response rating): 15% | pest or weed control at 125 g/ha ([8]; Bromus tectorum, post-emergence, 125 g ai/ha, scale 0 to 100 (0 no effect, 100 complete control), read-out: Bromegrass, Downy plant response rating): 20% | Sprangletop, Brdd. plant response rating ([9]; 32 g ai/ha): 0 | Sprangletop, Brdd. plant response rating ([9]; 64 g ai/ha): 0 | Sprangletop, Brdd. plant response rating ([9]; 125 g ai/ha): 0 | Sprangletop, Brdd. plant response rating ([9]; 250 g ai/ha): 0 | Plant response rating, Sprangletop, Brdd. ([9]; 16 g ai/ha): 0 | Junglerice plant response rating ([10]; 32 g ai/ha): 0 | Junglerice plant response rating ([10]; 64 g ai/ha): 0 | Junglerice plant response rating ([10]; 125 g ai/ha): 0 | Junglerice plant response rating ([10]; 250 g ai/ha): 0 | Plant response rating, Junglerice ([10]; 16 g ai/ha): 0 | Flatsedge, Rice plant response rating ([11]; 32 g ai/ha): 85 | Flatsedge, Rice plant response rating ([11]; 64 g ai/ha): 90 | Flatsedge, Rice plant response rating ([11]; 125 g ai/ha): 100 | Flatsedge, Rice plant response rating ([11]; 250 g ai/ha): 100 | Plant response rating, Flatsedge, Rice ([11]; 16 g ai/ha): 75 | Sedge, Umbrella plant response rating ([12]; 32 g ai/ha): 80 | Sedge, Umbrella plant response rating ([12]; 64 g ai/ha): 85 | Sedge, Umbrella plant response rating ([12]; 125 g ai/ha): 100 | Sedge, Umbrella plant response rating ([12]; 250 g ai/ha): 100 | Plant response rating, Sedge, Umbrella ([12]; 16 g ai/ha): 65 | Watergrass, Late plant response rating ([13]; 32 g ai/ha): 0 | Watergrass, Late plant response rating ([13]; 64 g ai/ha): 0 | Watergrass, Late plant response rating ([13]; 125 g ai/ha): 20 | Watergrass, Late plant response rating ([13]; 250 g ai/ha): 20 | Plant response rating, Watergrass, Late ([13]; 16 g ai/ha): 0

COC(=O)c1nc(-c2ccc(Br)cc2)nc(N)c1Br [Compound 129]
Plant response rating (scale of 0 to 100), Ryegrass, Italian ([1]; 16 g ai/ha): 45 | Plant response rating (scale of 0 to 100), Ryegrass, Italian ([1]; 31 g ai/ha): 55 | Plant response rating (scale of 0 to 100), Ryegrass, Italian ([1]; 62 g ai/ha): 55 | Ryegrass, Italian plant response rating [1, 15]: 60 | Plant response rating (scale of 0 to 100), Wheat ([2]; 16 g ai/ha): 0 | Plant response rating (scale of 0 to 100), Wheat ([2]; 31 g ai/ha): 35 | Plant response rating (scale of 0 to 100), Wheat ([2]; 62 g ai/ha): 35 | Wheat plant response rating [2, 15]: 35 | Plant response rating (scale of 0 to 100), Oat, Wild ([3]; 16 g ai/ha): 30 | Plant response rating (scale of 0 to 100), Oat, Wild ([3]; 31 g ai/ha): 35 | Plant response rating (scale of 0 to 100), Oat, Wild ([3]; 62 g ai/ha): 40 | Oat, Wild plant response rating [3, 15]: 40 | Plant response rating (scale of 0 to 100), Windgrass ([4]; 16 g ai/ha): 40 | Plant response rating (scale of 0 to 100), Windgrass ([4]; 31 g ai/ha): 45 | Plant response rating (scale of 0 to 100), Windgrass ([4]; 62 g ai/ha): 60 | Windgrass plant response rating [4, 15]: 60 | Plant response rating (scale of 0 to 100), Foxtail, Green ([5]; 16 g ai/ha): 40 | Plant response rating (scale of 0 to 100), Foxtail, Green ([5]; 31 g ai/ha): 40 | Plant response rating (scale of 0 to 100), Foxtail, Green ([5]; 62 g ai/ha): 40 | Foxtail, Green plant response rating [5, 15]: 60 | Plant response rating (scale of 0 to 100), Canarygrass ([6]; 16 g ai/ha): 0 | Plant response rating (scale of 0 to 100), Canarygrass ([6]; 31 g ai/ha): 30 | Plant response rating (scale of 0 to 100), Canarygrass ([6]; 62 g ai/ha): 30 | Canarygrass plant response rating [6, 15]: 30 | Plant response rating (scale of 0 to 100), Blackgrass ([7]; 16 g ai/ha): 35 | Plant response rating (scale of 0 to 100), Blackgrass ([7]; 31 g ai/ha): 45 | Plant response rating (scale of 0 to 100), Blackgrass ([7]; 62 g ai/ha): 50 | Blackgrass plant response rating [7, 15]: 50 | Plant response rating (scale of 0 to 100), Bromegrass, Downy ([8]; 16 g ai/ha): 0 | Plant response rating (scale of 0 to 100), Bromegrass, Downy ([8]; 31 g ai/ha): 0 | Plant response rating (scale of 0 to 100), Bromegrass, Downy ([8]; 62 g ai/ha): 0 | Bromegrass, Downy plant response rating [8, 15]: 0 | Sprangletop, Brdd. plant response rating ([9]; 64 g ai/ha): 0 | Sprangletop, Brdd. plant response rating ([9]; 125 g ai/ha): 0 | Sprangletop, Brdd. plant response rating ([9]; 250 g ai/ha): 70 | Plant response rating, Sprangletop, Brdd. ([9]; 16 g ai/ha): 0 | Plant response rating, Sprangletop, Brdd. ([9]; 32 g ai/ha): 0 | Barnyardgrass plant response rating ([14]; 32 g ai/ha): 0 | Barnyardgrass plant response rating ([14]; 64 g ai/ha): 0 | Barnyardgrass plant response rating ([14]; 125 g ai/ha): 0 | Barnyardgrass plant response rating ([14]; 250 g ai/ha): 0 | Plant response rating, Barnyardgrass ([14]; 16 g ai/ha): 0 | Junglerice plant response rating ([10]; 64 g ai/ha): 0 | Junglerice plant response rating ([10]; 125 g ai/ha): 0 | Junglerice plant response rating ([10]; 250 g ai/ha): 0 | Plant response rating, Junglerice ([10]; 16 g ai/ha): 0 | Plant response rating, Junglerice ([10]; 32 g ai/ha): 0 | Flatsedge, Rice plant response rating ([11]; 64 g ai/ha): 100 | Flatsedge, Rice plant response rating ([11]; 125 g ai/ha): 100 | Flatsedge, Rice plant response rating ([11]; 250 g ai/ha): 100 | Plant response rating, Flatsedge, Rice ([11]; 16 g ai/ha): 100 | Plant response rating, Flatsedge, Rice ([11]; 32 g ai/ha): 100 | Sedge, Umbrella plant response rating ([12]; 64 g ai/ha): 80 | Sedge, Umbrella plant response rating ([12]; 125 g ai/ha): 100 | Sedge, Umbrella plant response rating ([12]; 250 g ai/ha): 100 | Plant response rating, Sedge, Umbrella ([12]; 16 g ai/ha): 0 | Plant response rating, Sedge, Umbrella ([12]; 32 g ai/ha): 60 | Watergrass, Late plant response rating ([13]; 64 g ai/ha): 0 | Watergrass, Late plant response rating ([13]; 125 g ai/ha): 0 | Watergrass, Late plant response rating ([13]; 250 g ai/ha): 0 | Plant response rating, Watergrass, Late ([13]; 16 g ai/ha): 0 | Plant response rating, Watergrass, Late ([13]; 32 g ai/ha): 0
